# Source: ChEMBL document CHEMBL1201862, “PubChem BioAssay data set” (2004)
# Calls of active or inactive are those of the source.
# What was measured:
# [1] = Luminescence Cell-Based Dose Confirmation HTS to Identify Activators of 5'UTR Stem-Loop Driven Alpha-Synuclein mRNA Translation in H4 Neuroglioblastoma Cells. [Related pubchem assays: 1829 (Project Summary), 1814 (Primary HTS)]; format: functional
# [2] = Luminescence Cell-Based Dose Response HTS to Identify Activators of Luciferase Translation or Activity in H4 […] Cells. [Related pubchem assays: 1829 (Project Summary), 1814 (Primary HTS)]; format: functional
# H4 = test: Luminescence Cell-Based Dose Response HTS to Identify Activators of 5'UTR Stem-Loop Driven Prion Protein mRNA Translation in H4 Neuroglioblastoma Cells. [Related pubchem assays: 1829 (Project Summary), 1814 (Primary HTS)]; format: functional; details: Homo sapiens
# [3] = target: FAD-linked sulfhydryl oxidase ALR (Homo sapiens, UniProt P55789); test: ALR-catalysed DTT oxidation blockers – biochemical, H2O2 detection, luminescence, cherry-pick, dose response (AID 493248)
# H9c2 = test: cells; format: functional, cell-based; details: Rattus norvegicus, H9c2, Myocardium;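 note: confirmatory concentration-response retest of ultra-high-throughput screening hits for modulation of myocardial damage; cell death induced by hydrogen peroxide oxidative stress; compound pretreatment for 60 min then peroxide exposure for 2 h; potency is for protecting the cells against peroxide damage rather than for killing them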
# [4] = target: T1, Corticotropin-releasing factor receptor 2/Corticotropin-releasing factor-binding protein (Homo sapiens, UniProt P24387+Q13324); test: activators of CRF receptor 2 with binding protein – uHTS hits, confirmation (AID 602473); format: functional; details: read-out: EC50_Mean
# T1 sequence (Q13324 whole entry): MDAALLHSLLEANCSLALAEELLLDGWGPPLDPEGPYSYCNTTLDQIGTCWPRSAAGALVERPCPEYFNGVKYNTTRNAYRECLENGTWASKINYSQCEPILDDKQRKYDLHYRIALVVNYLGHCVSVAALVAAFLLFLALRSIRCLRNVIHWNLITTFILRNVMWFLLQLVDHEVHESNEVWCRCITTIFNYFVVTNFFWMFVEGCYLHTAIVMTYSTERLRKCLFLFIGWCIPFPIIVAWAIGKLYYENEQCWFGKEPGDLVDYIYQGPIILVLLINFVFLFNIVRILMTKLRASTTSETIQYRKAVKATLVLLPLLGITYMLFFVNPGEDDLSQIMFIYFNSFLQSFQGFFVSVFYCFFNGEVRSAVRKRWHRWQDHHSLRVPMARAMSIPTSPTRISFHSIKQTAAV
# T1 sequence (P24387 whole entry): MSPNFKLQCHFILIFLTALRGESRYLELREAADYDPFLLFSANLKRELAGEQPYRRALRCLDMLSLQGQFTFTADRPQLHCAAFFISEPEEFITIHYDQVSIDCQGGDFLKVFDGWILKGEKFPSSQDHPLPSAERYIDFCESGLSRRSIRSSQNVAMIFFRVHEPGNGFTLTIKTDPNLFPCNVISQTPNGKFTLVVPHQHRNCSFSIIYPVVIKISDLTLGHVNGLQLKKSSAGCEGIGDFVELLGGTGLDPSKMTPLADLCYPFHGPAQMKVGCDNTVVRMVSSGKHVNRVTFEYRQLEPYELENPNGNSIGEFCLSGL
# [5] = target: T1, Corticotropin-releasing factor receptor 2/Corticotropin-releasing factor-binding protein; test: Dose Response confirmation of uHTS hits for small molecule antagonists of the CRF-binding protein and CRF-R2 receptor complex.; format: functional; details: read-out: IC50_Mean
# BJ [6] = test: BJ-TERT fibroblast viability loss – cell-based, RAS-independent, luminescence, dose response (AID 1933); format: functional; details: Homo sapiens
# BJ [7] = test: cells; format: functional, cell-based; details: Homo sapiens
# BJ [8] = test: BJ-TERT-LT-ST fibroblast viability loss – cell-based, RAS-independent, luminescence, dose response (AID 1935); format: functional; details: Homo sapiens;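 note: BJ fibroblasts immortalized with TERT plus LT and ST oncogenes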
# [9] = DRD fibroblast viability loss – cell-based, non-viral oncogenic, luminescence, dose response (AID 1934); format: functional; details: Homo sapiens
# Cytochrome P450 2C19 = Cytochrome P450 2C19 (Homo sapiens, UniProt P33261); test: Cytochrome panel assay with activity outcomes. Panel member name: p450-cyp2c19 Compounds with AC50 equal or less than 10 uM are considered active; format: functional; details: read-out: AC50
# [10] = test system: Streptococcus sp. 'group A'; test: Streptococcus pyogenes SK(-)GAS viability under kanamycin – luminescence, BacTiterGlo, confirmation, counter-screen for streptokinase expression inhibitor project, dose response (AID 1900); format: functional, organism-based
# Streptococcus = test: GAS UMAA2166 growth inhibition – luminescence, BacTiterGlo, counter-screen for streptokinase expression inhibitor project, dose response (AID 1915); format: functional, organism-based;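 note: potency for reduction of bacterial viability or growth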
# [11] = Luminescence Cell-Based Dose Retest to Confirm Inhibitors of Cancer Stem Cells. [Related pubchem assays (depositor defined):AID2717, AID2721]; format: functional; details: Homo sapiens
# INS1 = test: INS-1E survival protection against cytokine death – cell-based, luminescence, retest, dose response (AID 449756); format: functional; details: Rattus norvegicus;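 note: cell death triggered by IL-1 beta plus TNF-alpha plus IFN-gamma mixture; protective hits raise ATP signal compared with cytokine alone wells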
# Paired box protein Pax-8 = Paired box protein Pax-8 (Homo sapiens, UniProt Q06710); test: PAX8 transcriptional activity inhibition in RMG-I – RMG-I cells, luciferase, cherry-pick, dose response (AID 687027); format: functional, cell-based;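 note: luciferase reporter driven by Pax8 target thyroperoxidase promoter measured by SteadyGlo luminescence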
# [12] = Trypanosoma cruzi growth suppression in host cells – NIH3T3 host cells, beta-gal luminescence, confirmation (AID 2044); format: functional, cell-based;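 note: intracellular parasites grown in NIH/3T3 mouse fibroblasts as host cells; luminescent beta-galactosidase reporter signal from transgenic T. cruzi replicating inside host cells; inhibitors lower the luminescence signal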
# [13] = NIH3T3 cell viability loss – ATP luminescence, mouse fibroblasts, counter-screen, dose response (AID 2010); format: functional, cell-based;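 note: cells exposed to compound for about 90 hours before reading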
# Cytochrome P450 2D6 = Cytochrome P450 2D6 (Homo sapiens, UniProt P10635);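 note: CYP2D6 member of a cytochrome P450 panel assay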
# Sequence of Cytochrome P450 2D6 (P10635 whole entry): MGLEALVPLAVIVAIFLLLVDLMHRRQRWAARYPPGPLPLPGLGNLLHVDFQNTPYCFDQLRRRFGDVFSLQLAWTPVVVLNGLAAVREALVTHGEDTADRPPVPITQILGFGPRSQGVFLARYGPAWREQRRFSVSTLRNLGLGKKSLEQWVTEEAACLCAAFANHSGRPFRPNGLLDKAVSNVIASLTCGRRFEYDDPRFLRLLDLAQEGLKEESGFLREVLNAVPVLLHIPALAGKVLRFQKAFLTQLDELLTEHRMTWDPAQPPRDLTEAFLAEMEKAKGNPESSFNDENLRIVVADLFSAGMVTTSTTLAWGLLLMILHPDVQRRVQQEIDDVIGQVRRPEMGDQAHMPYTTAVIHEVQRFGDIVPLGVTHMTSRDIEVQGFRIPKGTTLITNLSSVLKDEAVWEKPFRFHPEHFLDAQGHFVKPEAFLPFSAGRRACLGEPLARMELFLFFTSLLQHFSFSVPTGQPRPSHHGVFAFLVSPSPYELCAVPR
# Sequence of FAD-linked sulfhydryl oxidase ALR (P55789 whole entry): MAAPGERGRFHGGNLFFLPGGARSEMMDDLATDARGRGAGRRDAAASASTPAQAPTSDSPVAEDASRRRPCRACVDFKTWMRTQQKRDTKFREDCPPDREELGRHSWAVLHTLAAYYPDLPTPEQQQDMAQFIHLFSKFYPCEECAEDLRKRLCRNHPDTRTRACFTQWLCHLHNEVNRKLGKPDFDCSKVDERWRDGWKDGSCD
# Sequence of Cytochrome P450 2C19 (P33261 whole entry): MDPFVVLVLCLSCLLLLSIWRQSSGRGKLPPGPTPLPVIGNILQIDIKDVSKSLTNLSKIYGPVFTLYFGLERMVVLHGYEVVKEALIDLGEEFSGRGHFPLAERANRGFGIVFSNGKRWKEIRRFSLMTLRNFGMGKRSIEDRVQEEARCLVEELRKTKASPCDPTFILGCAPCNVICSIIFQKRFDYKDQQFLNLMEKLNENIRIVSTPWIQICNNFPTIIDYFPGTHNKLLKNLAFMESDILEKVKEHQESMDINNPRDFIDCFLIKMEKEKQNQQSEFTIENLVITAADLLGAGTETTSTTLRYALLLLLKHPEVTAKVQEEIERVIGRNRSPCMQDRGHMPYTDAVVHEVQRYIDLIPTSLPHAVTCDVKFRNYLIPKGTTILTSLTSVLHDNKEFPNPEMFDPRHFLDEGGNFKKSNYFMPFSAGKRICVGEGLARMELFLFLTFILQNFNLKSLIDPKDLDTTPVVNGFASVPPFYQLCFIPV
# Sequence of Paired box protein Pax-8 (Q06710 whole entry): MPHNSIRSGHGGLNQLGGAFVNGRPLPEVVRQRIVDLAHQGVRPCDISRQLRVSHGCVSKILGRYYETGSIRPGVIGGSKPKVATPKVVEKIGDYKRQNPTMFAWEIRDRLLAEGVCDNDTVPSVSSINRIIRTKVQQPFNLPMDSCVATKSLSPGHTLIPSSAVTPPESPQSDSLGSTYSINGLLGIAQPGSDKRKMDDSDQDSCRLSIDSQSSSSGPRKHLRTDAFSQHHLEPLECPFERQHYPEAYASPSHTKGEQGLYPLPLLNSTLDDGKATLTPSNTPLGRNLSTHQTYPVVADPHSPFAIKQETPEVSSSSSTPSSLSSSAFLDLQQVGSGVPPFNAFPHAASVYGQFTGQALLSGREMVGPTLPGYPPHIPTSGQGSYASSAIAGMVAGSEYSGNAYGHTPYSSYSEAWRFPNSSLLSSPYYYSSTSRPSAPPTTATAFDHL
smiles,measurement,setting,value
CC1Oc2ccccc2C=C1/C=C1/SC(N2CCOCC2)=NC1=O (stereo not drawn),EC50,[1],7.43 µM (active)
same,EC50,[2],37.3 µM (active)
same,EC50,H4,10.9 µM (active)
Nc1ccccc1Sc1c[nH]c2ccccc12,AC50,[3],24.5 µM (active)
Cc1nn(C)cc1C(C(=O)NC1CCCCC1)N(C(=O)Cc1cccs1)c1ccc(Cl)cc1 (stereo not drawn),IC50,H9c2,15.2 µM (active)
same,EC50,[4],12 µM (active)
COc1ccc2nc(O)c(CN(CC3CCCO3)S(=O)(=O)c3ccccc3F)cc2c1 (stereo not drawn),IC50,H9c2,15.5 µM (active)
Cc1cc(C(=O)C(=O)O)c(C)n1-c1ccc(Cl)c(Cl)c1,AC50,[3],1.39 µM (active)
O=C(NCCN1CCOCC1)c1cnn2c(-c3ccccc3)cc(-c3ccccc3)nc12,IC50,H9c2,> 79 µM (inactive)
CSc1nc2cc(Cl)ccc2s1,IC50,[5],> 47.1 µM (inactive)
same,EC50,[4],> 53 µM (inactive)
O=C(CC1Sc2ccccc2NC1=O)c1ccc(Br)cc1 (stereo not drawn),EC50,[1],5.6 µM (active)
same,EC50,[2],7.15 µM (active)
same,EC50,H4,36.6 µM (active)
Cc1sc2c(c1C)CN(CCN1CCOCC1)CN2C(=O)c1ccccc1,EC50,[1],19.9 µM (active)
same,EC50,[2],13.7 µM (active)
same,EC50,H4,> 120 µM (not active)
O=C(c1cccc(F)c1)N1CCN=C1SCc1cccnc1,AC50,[3],0.123 µM (active)
Cc1cc(NC(=O)c2cccc(Br)c2)[nH]n1,EC50,[1],2.47 µM (active)
same,EC50,[2],54.5 µM (active)
C=C(C)CSc1nc2c(cc1C#N)CCC2,IC50,[5],> 47.1 µM (inactive)
same,EC50,[4],> 53 µM (inactive)
Cc1ccc(C(=O)c2cc([N+](=O)[O-])ccc2N2CC(C)OC(C)C2)cc1 (stereo not drawn),EC50,BJ [6],13.8 µM (active)
same,EC50,BJ [7],31.6 µM (active)
same,EC50,BJ [8],16.7 µM (active)
same,EC50,[9],12.5 µM (active)
COc1ccc(N/C=C(\C#N)c2nc3ccccc3n2C)c(OC)c1,IC50,H9c2,> 79 µM (inactive)
N/C(=C\C(=O)c1cc(Cl)ccc1O)C(Cl)(Cl)Cl,EC50,BJ [6],3.92 µM (active)
same,EC50,BJ [7],5.09 µM (active)
same,EC50,BJ [8],7.09 µM (active)
same,EC50,[9],5.12 µM (active)
Cc1ccc2c(c1)C(N1CCCC1=O)CC(c1ccco1)N2 (stereo not drawn),EC50,[1],14.6 µM (active)
same,EC50,[2],16.1 µM (active)
same,EC50,H4,> 120 µM (not active)
Cc1ccccc1NCCC(=O)Nc1ccc(Cl)cc1,AC50,[3],4.88 µM (active)
Cc1ccc(C(=O)Oc2ccc(Cl)c3cccnc23)cc1[N+](=O)[O-],IC50,H9c2,> 79 µM (inactive)
O=C(c1ccccc1F)N1CCN=C1SCc1cccnc1,AC50,[3],0.552 µM (active)
CCCCNC(=O)c1cn(-c2ccc(OCC)cc2)c(=O)c2cc(OC)c(OC)cc12,IC50,H9c2,15.3 µM (active)
COc1ccc(C(C(=O)NC2CCCCC2)N(Cc2cccs2)C(=O)Cc2c[nH]c3ccccc23)cc1OC (stereo not drawn),IC50,H9c2,> 79 µM (inactive)
same,IC50,[5],> 47.1 µM (inactive)
same,EC50,[4],> 53 µM (inactive)
c1ccc(CCc2nc(-c3ccccc3)no2)cc1,EC50,[1],56.8 µM (active)
same,EC50,[2],51.8 µM (active)
same,EC50,H4,6.54 µM (active)
same,AC50,Cytochrome P450 2C19,0.501 µM (inconclusive)
COc1ccc(S(=O)(=O)Cc2ccc(C(=O)N3CCN(c4cccc(C)c4C)CC3)o2)cc1,EC50,BJ [6],> 150 µM (not active)
same,EC50,BJ [7],> 150 µM (not active)
same,EC50,BJ [8],> 75 µM (inconclusive)
same,EC50,[9],20.4 µM (active)
O=C(NCc1csc(-c2ccccc2)n1)c1cc(F)cc2c1OCOC2,EC50,[1],14.9 µM (active)
same,EC50,[2],13.1 µM (active)
same,EC50,H4,15.5 µM (active)
Cc1ccc(NCC(=O)N=Nc2c(O)[nH]c3ccc([N+](=O)[O-])cc23)cc1,EC50,[1],24.6 µM (active)
same,EC50,[2],0.255 µM (active)
same,EC50,H4,0.303 µM (active)
CCOC(=O)C1(Cc2cccc(OC)c2)CCCN(C(=O)CCc2cccnc2)C1 (stereo not drawn),EC50,[1],15.2 µM (active)
same,EC50,[2],12.6 µM (active)
same,EC50,H4,> 120 µM (not active)
Cc1cccc(NC(=O)c2[nH]cnc2C(=O)NCCCCCCNC(=O)c2nc[nH]c2C(=O)Nc2cccc(C)c2)c1,IC50,H9c2,14.4 µM (active)
Cc1cccc(C(=O)NNC(=O)c2ccc(Cl)cc2)c1O,EC50,[1],23.3 µM (active)
same,EC50,[2],7.11 µM (active)
same,EC50,H4,98.9 µM (active)
O=C(COC(=O)Cn1[nH]c(=O)c2ccccc2c1=O)Nc1ncc(Cl)cc1Cl,IC50,H9c2,> 79 µM (inactive)
Cc1nc2ccccc2c(=O)n1CCc1ccc(O)cc1,AC50,[3],3.66 µM (active)
CCN(C[C@H]1N[C@@](Cc2ccccc2)(C(=O)OC)[C@H]2C(=O)N(C)C(=O)[C@@H]12)S(=O)(=O)c1ccc(OC)cc1,IC50,H9c2,7.53 µM (active)
CN(CC(=O)Nc1cccc(F)c1)C(=O)Cc1nnc(O)c2ccccc12,IC50,H9c2,25.6 µM (active)
CC(C)c1ccc(/C=N/NC(=O)c2cc(-c3cccc([N+](=O)[O-])c3)[nH]n2)cc1,IC50,[5],> 47.1 µM (inactive)
same,EC50,[4],> 53 µM (inactive)
CCO/C(O)=C1\C(C)=NC(C)=C(C(=O)OCCNC(=O)c2cccnc2)C1c1cccc([N+](=O)[O-])c1 (stereo not drawn),IC50,H9c2,> 79 µM (inactive)
O=C(COc1ccccc1-c1ccccc1)N/N=C/c1ccc2ccccc2c1,EC50,[10],4.87 µM (active)
same,EC50,BJ [6],0.364 µM (active)
same,EC50,BJ [7],0.568 µM (active)
same,EC50,BJ [8],0.472 µM (active)
same,EC50,[9],0.475 µM (active)
same,EC50,Streptococcus,2.41 µM (active)
same,AC50,[11],0.258 µM (active)
same,AC50,INS1,9.14 µM (active)
same,AC50,Paired box protein Pax-8,2.1 µM (active)
COCCn1c(-c2ccccc2)cs/c1=N\c1cccnc1,IC50,[5],22.3 µM (active)
same,EC50,[4],> 53 µM (inactive)
C/C(=N\OC(=O)NC1CCCCC1)c1sc(-c2ccccc2)nc1C,EC50,[1],22 µM (active)
same,EC50,[2],0.673 µM (active)
same,EC50,H4,> 120 µM (inconclusive)
same,EC50,[12],2.05 µM (active)
same,EC50,[13],> 60 µM (not active)
same,AC50,Cytochrome P450 2D6,28.2 µM (inconclusive)
C[C@]12CC[C@H]3[C@@H](CC[C@H]4C[C@@H](O)CC[C@@]43C)[C@@H]1C[C@@H](O)C2,IC50,H9c2,> 79 µM (inactive)
Cc1c(C#N)c(N)nc2c3c(sc12)NC(=O)CC3c1ccccc1 (stereo not drawn),IC50,H9c2,32.6 µM (inactive)
